Experimental data from paper PMC11988912, “Sensitization Potential of the Major Soybean Allergen Gly m 4 and Its Cross-Reactivity with the Birch Pollen Allergen Bet v 1” (International Journal of Molecular Sciences, 2025).

target: T1, Gly m 4 (Glycine max, UniProt P26987); experiment: TNS fluorescence displacement; type: binding; conditions: 4 uM ligand, 4 uM TNS, 4 uM Gly m 4; 10 mM phosphate buffer pH 7.4, 25 C; residual fluorescence of the Gly m 4-TNS complex
T1 construct: gene PR-10; recombinant allergen, full length; made in E. coli
T1 sequence (P26987 1-158): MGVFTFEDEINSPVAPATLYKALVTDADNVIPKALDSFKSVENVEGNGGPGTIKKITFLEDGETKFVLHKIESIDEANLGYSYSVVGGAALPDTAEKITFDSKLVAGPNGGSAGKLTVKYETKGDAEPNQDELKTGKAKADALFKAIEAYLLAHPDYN

Structure (SMILES)	% of the control fluorescence
C[C@H](CCC(=O)O)[C@H]1CC[C@H]2[C@@H]3[C@H](O)C[C@@H]4C[C@H](O)CC[C@]4(C)[C@H]3C[C@H](O)[C@]12C [CA, cholic acid]	88%
C[C@H](CCC(=O)O)[C@H]1CC[C@H]2[C@@H]3[C@H](O)C[C@@H]4C[C@H](O)CC[C@]4(C)[C@H]3CC[C@]12C [CDCA, chenodeoxycholic acid]	53%
CC(C)CCC[C@@H](C)[C@H]1CC[C@H]2[C@@H]3CC=C4C[C@@H](O)CC[C@]4(C)[C@H]3CC[C@]12C [CHOL, cholesterol]	83%
C[C@H](CCC(=O)O)[C@H]1CC[C@H]2[C@@H]3CC[C@@H]4C[C@H](O)CC[C@]4(C)[C@H]3C[C@H](O)[C@]12C [DCA, deoxycholic acid]	71%
C[C@H](CCC(=O)O)[C@H]1CC[C@H]2[C@@H]3CC[C@@H]4C[C@H](O)CC[C@]4(C)[C@H]3CC[C@]12C [LCA, lithocholic acid]	10%
